Test results published in the NIST ThermoML archive (doi:10.1016/j.jct.2012.08.019).
± gives the expanded uncertainty stated by the source.

What was measured:
[1] = xn = mol fraction of the nth substance listed; details: Liquid; for mass density: Vibrating tube method; for viscosity: Moving piston method
[2] = 323.2 K, Liquid, Vibrating tube method

CCCCCCCCCC [decane] + CCCCCCCCCCCCCC
[1], 323.2 K, x1 = 1
Details	mass density [kg/m3]
100 kPa	707 ± 0.3
1000 kPa	707.9 ± 0.4
2000 kPa	708.8 ± 0.4
3000 kPa	709.7 ± 0.4
4000 kPa	710.6 ± 0.4
5000 kPa	711.5 ± 0.4
6000 kPa	712.4 ± 0.4
7000 kPa	713.3 ± 0.4
8000 kPa	714.1 ± 0.4
9000 kPa	715 ± 0.4
10000 kPa	715.9 ± 0.4

CCCCCCCCCCCCCC [tetradecane] + CCCCCCCCCC
mass density [kg/m3], [1], 323.2 K
Details	x2 = 0	x2 = 0.25	x2 = 0.5	x2 = 0.75
100 kPa	741.3 ± 0.4	734.3 ± 0.4	726.5 ± 0.4	717.2 ± 0.4
1000 kPa	742.1 ± 0.4	735.1 ± 0.4	727.4 ± 0.4	718.1 ± 0.4
2000 kPa	742.9 ± 0.4	735.9 ± 0.4	728.2 ± 0.4	719 ± 0.4
3000 kPa	743.7 ± 0.4	736.7 ± 0.4	729.1 ± 0.4	719.8 ± 0.4
4000 kPa	744.4 ± 0.4	737.5 ± 0.4	729.8 ± 0.4	720.7 ± 0.4
5000 kPa	745.2 ± 0.4	738.3 ± 0.4	730.7 ± 0.4	721.6 ± 0.4
6000 kPa	746 ± 0.4	739.1 ± 0.4	731.5 ± 0.4	722.5 ± 0.4
7000 kPa	746.7 ± 0.4	739.9 ± 0.4	732.4 ± 0.4	723.2 ± 0.4
8000 kPa	747.5 ± 0.4	740.7 ± 0.4	733.2 ± 0.4	724 ± 0.4
9000 kPa	748.2 ± 0.4	741.5 ± 0.4	734 ± 0.4	724.9 ± 0.4
10000 kPa	749 ± 0.4	742.2 ± 0.4	734.8 ± 0.4	725.8 ± 0.4

CCCCCCCCCCCCCC [tetradecane] + O=C=O
[1]
Details	mass density, 323.3 K [kg/m3]	viscosity, 323.2 K [mPa·s]
980 kPa, x2 = 0.097	744 ± 2	1.18 ± 0.1
2060 kPa, x2 = 0.196	748 ± 2	1.08 ± 0.1
3000 kPa, x2 = 0.279	751 ± 2	0.96 ± 0.1
4030 kPa, x2 = 0.358	755 ± 2	0.79 ± 0.1
4960 kPa, x2 = 0.429	758 ± 2	0.67 ± 0.1
6000 kPa, x2 = 0.496	762 ± 2	0.56 ± 0.1

CCCCCCCCCC [decane] + O=C=O
[1]
Details	mass density, 323.3 K [kg/m3]	viscosity, 323.2 K [mPa·s]
1020 kPa, x2 = 0.094	711 ± 2	0.56 ± 0.1
2080 kPa, x2 = 0.19	716 ± 2	0.46 ± 0.1
2970 kPa, x2 = 0.263	720 ± 2	0.42 ± 0.1
3940 kPa, x2 = 0.353	724 ± 2	0.38 ± 0.1
4910 kPa, x2 = 0.429	729 ± 2	0.33 ± 0.1
5960 kPa, x2 = 0.513	735 ± 2	0.28 ± 0.1

CCCCCCCCCC [decane]
[2]
Details	mass density [kg/m3]
100 kPa	707 ± 0.3
1000 kPa	707.9 ± 0.4
2000 kPa	708.8 ± 0.4
3000 kPa	709.7 ± 0.4
4000 kPa	710.6 ± 0.4
5000 kPa	711.5 ± 0.4
6000 kPa	712.4 ± 0.4
7000 kPa	713.3 ± 0.4
8000 kPa	714.1 ± 0.4
9000 kPa	715 ± 0.4
10000 kPa	715.9 ± 0.4

CCCCCCCCCCCCCC [tetradecane]
[2]
Details	mass density [kg/m3]
100 kPa	741.3 ± 0.4
1000 kPa	742.1 ± 0.4
2000 kPa	742.9 ± 0.4
3000 kPa	743.7 ± 0.4
4000 kPa	744.4 ± 0.4
5000 kPa	745.2 ± 0.4
6000 kPa	746 ± 0.4
7000 kPa	746.7 ± 0.4
8000 kPa	747.5 ± 0.4
9000 kPa	748.2 ± 0.4
10000 kPa	749 ± 0.4
